Measured values as given in patent publication US7968526B2, “Antisense oligonucleotides directed to ribonucleotide reductase R2 and uses thereof in the treatment of cancer” (Lorus Therapeutics Inc., priority 2003, dated 2011).
Entries after “also recorded” stand apart in the source; their conditions may differ.

Legend:
[1] = 21-day continuous infusion toxicity study in the monkey with a 3-week recovery; format: in vivo
Method: A second repeat-dose study was conducted in monkeys to evaluate the toxicity associated with administration of test article by continuous intravenous infusion for 21 days followed by a 21-day recovery period. Twenty-eight monkeys were administered one of the following dose levels; vehicle control, 2 mg/kg/day, 10 mg/kg/day, or 50 mg/kg/day. Toxicokinetic samples were collected prior to the initiation of infusion, approximately 8, 24, 48, and 96 hours following the start of infusion, and on Day 20 prior to the change in dose-syringes. […] As in the previous rat study, the 2 mg/kg/day dose level was identified as the no-adverse-effect-level (NOAEL).

[2] = test system: Caki-1 human kidney cancer cells; assay: Caki-1 kidney tumour xenograft in SCID mice, controls and chemotherapeutics (Example 7); format: in vivo, human cells in mice
Excerpt: CD-1 athymic female nude mice, BALB/c nu/nu nude mice, SCID, and SCID beige mice were purchased from Charles River Laboratories (Montreal, Canada) and experiments were typically initiated when the mice were 6-7 weeks old. […] Each experimental group typically contained 10 mice. After the size of tumour reached a mean tumour volume of 50-100 mm^3, treatment was initiated. […] Anti-tumour activity was estimated by the measurement of tumour volume with a calliper at two-three day intervals. Tumour volume was calculated by a formula L×W×H/2, where L indicates length, W indicates width and H indicates height. Within 24 hours after the last treatment, the animals were sacrificed and tumour and body weights were measured. Results of statistical analyses of the data are presented as P values in the figure legends.
Three additional treatment groups received: 5-FU (13 mg/kg/day×5), vinblastine (1 mg/kg/week) and gemcitabine (100 mg/kg/week). […] Calliper measurements at 1-week intervals were used to calculate tumour volumes. Each point in FIG. 28A represents mean tumour volume calculated from 10 animals per experimental group (with the exception of SEQ ID NO:1 which was 8 animals).
After 49 days the mice were sacrificed and the tumours weighed. Each bar represents the mean tumour weight and standard error calculated for each treatment group.

[3] = test system: SIHA human cervical cancer cells; assay: SIHA cervical tumour growth in SCID mice (3.10); format: in vivo, human cells in mice
Method: Treatments lasted for 14 days thereafter. Antitumour activities were estimated by the inhibition of tumour volume, which was measured with a caliper on four different occasions over the treatment period. Each point represents mean tumour volume calculated from 5 animals per experimental group. […] Control animals (control) received saline alone for the same period. At the end of the treatments, the animals were sacrificed, tumours were excised and their weights were measured. Each bar represents mean tumour weight calculated from 6 animals per experimental group. […] Treatments lasted for 24 days thereafter. Antitumour activities were estimated by the inhibition of tumour volume, which was measured with a caliper at two-day intervals over the treatment period. Each point represents mean tumour volume calculated from 4 animals per experimental group. […] Treatments lasted for 24 days thereafter. Antitumour activities were estimated by the inhibition of tumour volume, which was measured with a caliper at two-day intervals over the treatment period. Each point represents mean tumour volume calculated from 4 animals per experimental group. […] Each point represents mean tumour volume calculated from 5 animals per experimental group. […] Antitumour activities were estimated by the inhibition of tumour volume, which was measured with a caliper on four different occasions over 16-day period. Each point represents mean tumour volume calculated from 5 animals per experimental group. […] Antitumour activities were estimated by the inhibition of tumour volume, which was measured with a caliper at two-day intervals over the treatment period. Each point represents mean tumour volume calculated from 5 animals per experimental group. […] Antitumour activities were estimated by the inhibition of tumour volume, which was measured with a caliper at various time intervals over the span of 30 days. Each point represents mean tumour volume calculated from 6 animals per experimental group. […] Antitumour activities were estimated by the inhibition of tumour volume, which was measured with a caliper. […]

[4] = continuous i.v. infusion 21 days

Substance: 5′-GGCTAAATCGCTCCACCAAG-3′ (all phosphorothioate, sugars by position and methylation of C not given here) [SEQ ID NO: 1, fully phosphorothioated antisense oligonucleotide that hybridizes to the coding region of R2 mRNA]
- Deaths ([1]; 2, 10 or 50 mg/kg/day continuous i.v. infusion 21 days): No unplanned deaths
- Reversibility of changes ([1]; 3-week post-dosing treatment-free period): reversed either completely or partially
- Toxicity findings ([1]; 10 and 50 mg/kg/day continuous i.v. infusion 21 days): splenic histiocytosis, anticoagulant effects, complement activation, and continuous infusion effects
- Target organs (histopathologic changes) [1, 4]: kidneys, liver, and lymph nodes
- no-adverse-effect-level (NOAEL) [1, 4]: 2 mg/kg/day
- Effect on tumour growth (volume and weight) ([2]; Caki-1, SCID mice, oligonucleotides 10 mg/kg/2 days i.v.): exceptional efficacy against renal cell carcinomas; also recorded: dramatic inhibition in growth of Caki-1 and A498 renal tumours; also recorded: superior to any of these compounds
- Time of treatment to complete tumour regression ([2]; renal tumours, SCID mice, 10 mg/kg/2 days i.v., day 28 post implantation of tumour): ≤ 3 weeks
- Inhibition of tumour weight ([3]; Human Cervical Carcinoma^2): ~90%
- Inhibition of tumour size ([3]; Human Cervical Carcinoma^2 in SCID mice, Day 22 after tumour implantation): Inhibition of tumour size by approximately 90%
- Inhibitory effect on tumour growth (tumour volume and weight, FIG. 22) ([3]; SIHA, SCID mice, 10 mg/kg i.v. every other day, 16 days): strong inhibitory effects on the growth of human cervical carcinoma
